One series addresses T1, JAK1-JH2 domain (Homo sapiens, UniProt P23458).
T1 construct: JAK1-JH2 domain or TYK2-JH2 domain enzyme in assay buffer
Briefly: Binding activity test for JH2 domain of JAK1 (Tb-antibody/tracer FRET). Particulars: JH2 domain enzyme; 60 min at 25°C, then 4°C overnight; read-out: JAK1 JH2 Binding IC50. The procedure, abridged:
(§1)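 Competitive TR-FRET binding: compounds dispensed as an 11-point 3-fold dilution series, then Tb-labelled antibody and tracer added to the JH2 protein system. Incubated at 25°C, then overnight at 4°C; FRET signal read on Envision and IC50 (nM) derived.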

The next series deals with T2, TYK2-JH2 domain (Homo sapiens, UniProt P29597).
T2 construct: JAK1-JH2 domain or TYK2-JH2 domain enzyme in assay buffer
T2 sequence (P29597 589-875 limits assumed): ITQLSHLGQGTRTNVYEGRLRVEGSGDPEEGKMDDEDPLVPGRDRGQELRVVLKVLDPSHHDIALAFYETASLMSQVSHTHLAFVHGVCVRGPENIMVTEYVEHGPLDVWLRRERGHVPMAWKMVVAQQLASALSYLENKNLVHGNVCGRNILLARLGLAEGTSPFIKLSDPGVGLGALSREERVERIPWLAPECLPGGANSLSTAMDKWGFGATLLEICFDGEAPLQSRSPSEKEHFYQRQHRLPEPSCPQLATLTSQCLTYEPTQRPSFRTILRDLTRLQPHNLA
Briefly: Binding activity test for JH2 domain of TYK2 (Tb-antibody/tracer FRET). Particulars: for pIC50: JH2 domain enzyme, 60 min at 25°C, then 4°C overnight, read-out: TYK2 JH2 Binding IC50; for JAK1/TYK2 selectivity: ratio of JAK1 JH2 to TYK2 JH2 binding IC50. An outline of the steps: as §1

In series [1] the test system is Ba/F3-FL-TYK2-P760L cells. Briefly: Anti-proliferative assay in engineered Ba/F3 cells (Cell-Titer Glo, 72 h). Particulars: 72 h compound treatment, concentration that causes 50% growth inhibition, read-out: Baf3-FL-T2P760L. It counts as cell-based. The procedure, abridged: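 Ba/F3 cells carrying Tel-dimerization/JAK kinase fusion, IL-3-independent, in RPMI-1640 + 10% FBS; 9-point 3-fold dilutions from 20 µM (0.1% DMSO) added after 24 h, 72 h at 37 °C. Viability by Cell-Titer Glo ATP luminescence; % inhibition versus DMSO cells, blank-corrected, giving IC50.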

For another series, the system named is pSTAT1. Briefly: Phosphorylation inhibition of STAT in human whole blood (IFN-alpha stimulated, flow cytometry). The format is cell-based. Particulars: T-cell, 20 min, IFN-alpha stimulation 20 mins, CD3 T cells, read-out: pSTAT1 inhibition in hWB (IC50). Here is the method:
The inhibitory potential of test articles in human whole blood assay was evaluated by the method of flow cytometry.
IFN-alpha will activate JAK1 and TYK2 kinase in T cells by binding to IFN receptors, and then lead to phosphorylation of STAT1 and STAT2. The phosphorylated STAT1 enter nuclear and promote transcription and expression of IFN-gamma. To evaluate the efficacy of TYK2i in T cells, freshly collected human whole blood will be stimulated with certain unit of human IFN-alpha (Universal Type I IFN(1MU), R&D, 11200-2) for 20 mins in incubator. After stimulation, fix cells with Phosflow™ Fix Buffer I (BD, 557870), and then collect fixed cells by centrifugation (500 g, 8min). Wash cells once with pre-cooled PBS, and then permeabilize cells with cold Perm Buffer III buffer (BD, 558050) for 45 mins on ice. Collect cells by centrifugation (600 g, 8min) and washed twice with cold PBS. Stain cells with anti-human CD3(FITC Mouse Anti-Human CD3, BD, 555332) and anti-pSTAT1_Y701(Alexa Fluor 647 Mouse Anti-Stat1 (pY701), BD, 612597) antibodies. Detect pSTAT1 by flow cytometry (CytoFlex S) and analyze data with FlowJo and GraphPad Prism 8 software. IC50 values of test articles were determined using 4- parameter logistic equation.

Series [2] in a line: Microsomal metabolic stability assay. The format is in vitro ADME. Particulars: human, liver microsomes, pH 7.4, 0.5 mg/mL microsomal protein, 1 µM test article, 2 mM NADPH; for microsomal CLint at 1 µM: read-out: Human LM Clint; for half-life at 1 µM: read-out: Human LM T1/2. Here is the method:
Microsomes were pre-incubated with test compound or control compounds for 5 min at 37°C in 100 mM potassium phosphate buffer, pH 7.4, 1.0 mM EDTA. The reaction was initiated by addition of 15 µL of the NADPH regenerating system to 30 µL of each incubation mixture per time point. The final incubation condition was composed of 0.5 mg/mL microsomal protein, 1 µM test article/positive control, 2 mM NADPH. The 0-minute samples were prepared by addition of a 30 µL aliquot of each incubation mixture to 135 µL quench reagent to precipitate proteins. And then a 15 µL aliquot of the NADPH regenerating system was added. At 5, 15, 30 and 45 minutes, the reaction will be stopped by the addition of cold acetonitrile solution containing internal standard. The samples taken at all time points were centrifuged at 5000×g for 15 minutes. 50 µL of supernatant are taken into 96-well assay plates pre-added with 50 µL ultrapure water, and then analyzed by LC/MS/MS.
Concentrations of test articles, control compounds in the samples were determined by using LC/MS/MS method. Plotting of the chromatograms and peak area integrations are carried out by Analyst (AB Sciex).
In the determination of the in vitro elimination constant (ke) of the control compounds, the analyte/internal standard peak area ratios will be converted to percentage remaining (%Remaining) with the following equation: %Remaining = (Peak area ratio of analyte to IS at each time point)/(Peak area ratio of analyte to IS at t = 0) × 100% [formula]
The CLint of microsomes was calculated using the formula: CLint (mic)=0.693/T1/2 /mg microsome protein per mL. The slope was measured by the natural logarithm of the percentage of the residual compound and time, T1/2 was calculated according to the following formula. T = (0.693)/(−slope) [formula]

pIC50: −log10 of the molar value. Where two headings read alike, the source gives them in different places.

T1 sequence (P23458 583-855 limits assumed): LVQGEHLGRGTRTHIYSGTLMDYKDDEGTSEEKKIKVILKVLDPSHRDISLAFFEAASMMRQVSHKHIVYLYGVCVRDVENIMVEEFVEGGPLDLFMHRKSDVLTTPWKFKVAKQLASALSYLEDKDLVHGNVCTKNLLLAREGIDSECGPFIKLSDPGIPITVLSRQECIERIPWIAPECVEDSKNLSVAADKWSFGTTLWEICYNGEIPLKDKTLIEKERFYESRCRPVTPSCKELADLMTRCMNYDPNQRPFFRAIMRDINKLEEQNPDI

On to `[2H]C([2H])([2H])NC(=O)c1cnc(NC(=O)C2CC2)cc1Nc1nn(CC)c2ccc(C(O)C(F)(F)F)c(OC)c12` (single isomer, unassigned) [Example 71A, (S*)-6-(cyclopropanecarboxamido)-4-((1-ethyl-4-methoxy-5-(2,2,2-trifluoro-1-hydroxyethyl)-1H-indazol-3-yl)amino)-N-(methyl-d3)nicotinamide], for which the pIC50 is 8.14 at JAK1-JH2 domain, 9.85 at TYK2-JH2 domain, 9.39 in series [1] and 7.26 in the series with pSTAT1. For the same molecule, on TYK2-JH2 domain, the JAK1/TYK2 selectivity turned out to be 51.84.

As to `[2H]C([2H])([2H])NC(=O)c1cnc(NC(=O)C2CC2)nc1Nc1cnn2ccc(Cl)c(OC)c12` [Example 4, 4-((5-Chloro-4-methoxypyrazolo[1,5-a]pyridin-3-yl)amino)-2-(cyclopropanecarboxamido)-N-(methyl-d3)pyrimidine-5-carboxamide], the pIC50 is 7.81 at JAK1-JH2 domain; 9.79 on TYK2-JH2 domain; 7.41 in series [1] (Mus musculus, BaF3, 72 h); 6.51 with pSTAT1. The JAK1/TYK2 selectivity on TYK2-JH2 domain came to 93.5.

In the case of `[2H]C([2H])([2H])NC(=O)c1cnc(NC(=O)C2CC2)cc1Nc1cnn2ccc(CC#N)c(OC)c12` [Example 18, 4-((5-(Cyanomethyl)-4-methoxypyrazolo[1,5-a]pyridin-3-yl)amino)-6-(cyclopropanecarboxamido)-N-(methyl-d3)nicotinamide], the pIC50 was 8.79 at JAK1-JH2 domain; 9.89 at TYK2-JH2 domain; 7.04 in series [1] (Mus musculus, BaF3, 72 h); 7.07 with pSTAT1. Besides, the JAK1/TYK2 selectivity at TYK2-JH2 domain is reported as 12.5.

As to `[2H]C([2H])([2H])NC(=O)c1cnc(NC(=O)C2CC2)cc1Nc1cnn2ccc(CO)c(OC)c12` [Example 22, 6-(Cyclopropanecarboxamido)-4-((5-(hydroxymethyl)-4-methoxypyrazolo[1,5-a]pyridin-3-yl)amino)-N-(methyl-d3)nicotinamide], the pIC50 at JAK1-JH2 domain is 8.12; on TYK2-JH2 domain it was 9.73; in series [1] (Mus musculus, BaF3, 72 h), 6.89; with pSTAT1, 7.09. The JAK1/TYK2 selectivity at TYK2-JH2 domain is listed as 40.6. In addition, the microsomal CLint at 1 µM in series [2] worked out at 4.5 µL/min/mg. Also, in series [2], the half-life at 1 µM stood at 5.13 h.

On to `COC(=O)c1cnc(NC(=O)C2CC2)cc1Nc1nn(C)c2ccc(C(O)C(F)(F)F)c(OC)c12` (stereo not drawn) [Example 48, Methyl 6-(cyclopropanecarboxamido)-4-((4-methoxy-1-methyl-5-(2,2,2-trifluoro-1-hydroxyethyl)-1H-indazol-3-yl)amino)nicotinate], for which the pIC50 on JAK1-JH2 domain is 7.47. In addition, on TYK2-JH2 domain, the pIC50 was 9.78 and the JAK1/TYK2 selectivity is given as 202.69. The pIC50 in series [1] (Mus musculus, BaF3, 72 h) is 8.66. In addition, in series [2], the microsomal CLint at 1 µM was 19.3 µL/min/mg and the half-life at 1 µM was 1.2 h.

As to `[2H]C([2H])([2H])NC(=O)c1nnc(NC(=O)C2CC2)cc1Nc1nn(C)c2ccc([C@H](OC)C(F)(F)F)c(OC)c12` [Example 51B, (S)-6-(cyclopropanecarboxamido)-4-((4-methoxy-1-methyl-5-(2,2,2-trifluoro-1-methoxyethyl)-1H-indazol-3-yl)amino)-N-(methyl-d3)pyridazine-3-carboxamide], the pIC50 on JAK1-JH2 domain is 8.90; on TYK2-JH2 domain, 9.77; in series [1] (Mus musculus, BaF3, 72 h) it was 9.40; with pSTAT1 it was 7.12. In addition, the JAK1/TYK2 selectivity at TYK2-JH2 domain stood at 7.43. Moreover, the microsomal CLint at 1 µM in series [2] was 8.06 µL/min/mg. Further, in series [2], the half-life at 1 µM was determined as 2.87 h.

As for `[2H]C([2H])([2H])OC(c1ccc2c(c(Nc3cc(NC(=O)C4CC4)ncc3C(=O)OC)nn2C([2H])([2H])[2H])c1OC)C(F)F` (stereo not drawn) [Example 102, Methyl 6-(cyclopropanecarboxamido)-4-((5-(2,2-difluoro-1-(methoxy-d3)ethyl)-4-methoxy-1-(methyl-d3)-1H-indazol-3-yl)amino)nicotinate], on JAK1-JH2 domain, the pIC50 was 7.73. Besides, at TYK2-JH2 domain, the pIC50 is 9.72 and the JAK1/TYK2 selectivity came to 99.81. The pIC50 in series [1] (Mus musculus, BaF3, 72 h) was 8.41. Besides, in series [2], the microsomal CLint at 1 µM was 29.8 µL/min/mg and the half-life at 1 µM stood at 0.776 h.

Turning to `COC(=O)c1cnc(NC(=O)C2CC2)cc1Nc1nc2ccc(N3CC(OC)C3)cn2n1` [Example 107, Methyl 6-(cyclopropanecarbonylamino)-4-[[6-(3-methoxyazetidin-1-yl)-[1,2,4]triazolo[1,5-a]pyridin-2-yl]amino]pyridine-3-carboxylate], the pIC50 at TYK2-JH2 domain is 9.60; in series [1] (Mus musculus, BaF3, 72 h), 7.56; in the series with pSTAT1 it was 6.40.

Regarding `[2H]C([2H])([2H])CC(=O)c1cnc(NC(=O)C2CC2)cc1Nc1cnn2ccc([C@H](O)C(F)(F)F)c(OC)c12` [Example 141, (S)-N-(4-((4-methoxy-5-(2,2,2-trifluoro-1-hydroxyethyl)pyrazolo[1,5-a]pyridin-3-yl)amino)-5-(propanoyl-3,3,3-d3)pyridin-2-yl)cyclopropanecarboxamide], the pIC50 on TYK2-JH2 domain was 10.12; in series [1] (Mus musculus, BaF3, 72 h) it was 7.95; in the series on pSTAT1 it was 6.75.

As for `[2H]C([2H])(C)C(=O)c1cnc(NC(=O)C2CC2)cc1Nc1nn(C)c2ccc(C(O)C(F)(F)F)c(OC)c12` (stereo not drawn) [Example 156, N-(4-((4-methoxy-1-methyl-5-(2,2,2-trifluoro-1-hydroxyethyl)-1H-indazol-3-yl)amino)-5-(propanoyl-2,2-d2)pyridin-2-yl)cyclopropanecarboxamide], on JAK1-JH2 domain, the pIC50 was 7.85. At TYK2-JH2 domain, the pIC50 was 9.79 and the JAK1/TYK2 selectivity turned out to be 86.87. Besides, the pIC50 in series [1] (Mus musculus, BaF3, 72 h) is 8.76. For the same molecule, in series [2], the microsomal CLint at 1 µM worked out at 26.2 µL/min/mg and the half-life at 1 µM amounted to 0.881 h.

For `[2H]C([2H])([2H])NC(=O)c1cnc(NC(=O)[C@@H]2C[C@@H]2F)cc1Nc1nn(C)c2ccc([C@H](OC([2H])([2H])[2H])C(F)(F)F)c(OC)c12` [Example 192, 6-((1S,2S)-2-Fluorocyclopropane-1-carboxamido)-4-((4-methoxy-1-methyl-5-((S)-2,2,2-trifluoro-1-(methoxy-d3)ethyl)-1H-indazol-3-yl)amino)-N-(methyl-d3)nicotinamide], the pIC50 was 8.58 at JAK1-JH2 domain; 10.12 on TYK2-JH2 domain; 10.06 in series [1] (Mus musculus, BaF3, 72 h); 7.61 in the series with pSTAT1. In addition, the JAK1/TYK2 selectivity at TYK2-JH2 domain is on record as 35.08.

Turning to `[2H]C([2H])([2H])NC(=O)c1nnc(NC(=O)C2CC2)cc1Nc1ncn2cccc2c1OC` [Example 198, 6-(Cyclopropanecarboxamido)-4-((4-methoxypyrrolo[1,2-c]pyrimidin-3-yl)amino)-N-(methyl-d3)pyridazine-3-carboxamide, reference compound], the pIC50 on JAK1-JH2 domain is 7.98; on TYK2-JH2 domain, 8.83; in series [1] (Mus musculus, BaF3, 72 h), 6.59; in the series with pSTAT1, 5.83. In addition, the JAK1/TYK2 selectivity on TYK2-JH2 domain was 7.0.

These data come from EP4813463A2, “TYK2 INHIBITORS AND COMPOSITIONS AND METHODS THEREOF” (Lynk Pharmaceuticals Co. Ltd., priority 2023, dated 2024).
